Assay results as given in patent US8163756B2 (priority 2004, dated 2012).

What was measured:
Assay type in all cases: biochemical
B-Raf(V599E) kinase = B-Raf(V599E) kinase (Homo sapiens, UniProt P15056, V600E); experiment: B-Raf(V599E) kinase assay B1 (construct 1, MEK1 substrate, coupled spectrophotometric)
Procedure: The test compounds were incubated with the reaction mixtureat 30° C. for 2 h. […] The reaction rate was calculated using the […] time frame. […] IC50 values were calculated from a series of percent inhibition values determined at a range of inhibitor concentrations using software routines as implemented in the GraphPad Prism software package.

KDR kinase = KDR kinase (Homo sapiens, UniProt P35968, DEL940-989/E990V); experiment: KDR kinase assay K1 (pyruvate kinase/lactate dehydrogenase coupled, spectrophotometric); conditions: Method K1; read-out: KDR Data (IC50)
Sequence of KDR kinase (P35968 with tags, fused parts or gaps DEL940-989/E990V): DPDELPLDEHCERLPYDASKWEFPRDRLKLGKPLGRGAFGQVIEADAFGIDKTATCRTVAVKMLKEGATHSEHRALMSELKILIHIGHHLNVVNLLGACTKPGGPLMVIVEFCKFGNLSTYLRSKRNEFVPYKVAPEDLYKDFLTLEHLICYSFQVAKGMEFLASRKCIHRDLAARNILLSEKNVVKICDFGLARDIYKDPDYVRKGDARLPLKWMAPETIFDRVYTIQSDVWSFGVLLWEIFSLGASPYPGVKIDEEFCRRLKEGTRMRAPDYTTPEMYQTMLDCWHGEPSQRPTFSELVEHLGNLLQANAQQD
Procedure: (§1) IC50 values were calculated from a series of percent inhibition values determined at a range of inhibitor concentrations using software routines as implemented in the GraphPad Prism software package.

Abl kinase = target: T1, Abl kinase (Homo sapiens, UniProt P00519); experiment: Abl kinase assay A1 (pyruvate kinase/lactate dehydrogenase coupled, spectrophotometric); conditions: Method A1; read-out: Abl Data (IC50)
T1 sequence (P00519 229-512): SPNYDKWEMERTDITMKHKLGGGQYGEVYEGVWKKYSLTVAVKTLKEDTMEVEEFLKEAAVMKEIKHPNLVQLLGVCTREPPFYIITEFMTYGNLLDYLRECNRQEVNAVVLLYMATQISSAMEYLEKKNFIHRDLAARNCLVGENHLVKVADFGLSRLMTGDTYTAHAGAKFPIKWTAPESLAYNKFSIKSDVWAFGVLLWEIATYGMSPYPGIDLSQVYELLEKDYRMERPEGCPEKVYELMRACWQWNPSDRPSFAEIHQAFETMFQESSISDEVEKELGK
Procedure: as §1

[1] = target: phosphorylated p-38-alpha kinase (Homo sapiens, UniProt Q16539); experiment: P-38 alpha kinase assay P1 (coupled spectrophotometric, 2 h pre-incubation); conditions: method P1 (2 h pre-incubation); read-out: P-38 Data
Sequence of phosphorylated p-38-alpha kinase (Q16539 1-360 isoform Q16539-2): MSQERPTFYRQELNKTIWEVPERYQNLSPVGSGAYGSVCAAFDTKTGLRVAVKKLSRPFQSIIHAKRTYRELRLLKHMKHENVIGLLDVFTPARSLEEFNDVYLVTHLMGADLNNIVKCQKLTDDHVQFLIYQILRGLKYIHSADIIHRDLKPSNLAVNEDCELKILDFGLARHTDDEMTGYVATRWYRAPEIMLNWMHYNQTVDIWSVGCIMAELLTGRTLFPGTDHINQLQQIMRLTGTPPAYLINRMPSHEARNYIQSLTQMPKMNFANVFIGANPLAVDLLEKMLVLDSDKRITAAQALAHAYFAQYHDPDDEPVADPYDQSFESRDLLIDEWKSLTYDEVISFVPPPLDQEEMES

Sequence of B-Raf(V599E) kinase (P15056 with tags, fused parts or gaps V600E): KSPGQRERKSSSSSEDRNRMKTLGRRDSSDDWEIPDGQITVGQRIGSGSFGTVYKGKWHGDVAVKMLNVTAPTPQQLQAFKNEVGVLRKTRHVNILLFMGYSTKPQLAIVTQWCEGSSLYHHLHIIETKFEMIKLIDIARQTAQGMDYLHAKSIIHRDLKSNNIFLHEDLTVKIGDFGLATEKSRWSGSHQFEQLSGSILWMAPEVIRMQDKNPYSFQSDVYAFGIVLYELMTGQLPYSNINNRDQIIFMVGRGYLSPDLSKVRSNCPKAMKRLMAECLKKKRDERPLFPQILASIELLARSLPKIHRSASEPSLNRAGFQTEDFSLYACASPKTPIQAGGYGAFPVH

| SMILES | IC50 (B-Raf(V599E) kinase) [nM] | IC50 (KDR kinase) [nM] | IC50 (Abl kinase) [nM] | IC50 [1] [nM] |
| --- | --- | --- | --- | --- |
| CC(C)(C)c1cc(NC(=O)Nc2ccc(Cl)cc2)n(-c2cc(CN)c3ccccc3c2)n1 [Example 68, 1-[1-(4-(aminomethyl)naphthalen-2-yl)-3-t-butyl-1H-pyrazol-5-yl]-3-(4-chlorophenyl)urea] | 24 | 1400 | – | – |
| CC(C)(C)c1cc(NC(=O)Nc2cccc(Cl)c2Cl)n(-c2cc(CC(N)=O)c3ccccc3c2)n1 [Example 78, 2-(3-{3-t-butyl-5-[3-(2,3-dichlorophenyl)ureido]pyrazol-1-yl}naphthalen-1-yl)acetamide] | 3.5 | – | 72 | – |
| CC(C)(C)c1cc(NC(=O)Nc2ccc(F)c(F)c2F)n(-c2cc(CC(N)=O)c3ccccc3c2)n1 [Example 80, 1-(1-(4-(2-amino-2-oxoethyl)naphthalen-2-yl)-3-t-butyl-1H-pyrazol-5-yl)-3-(2,3,4-trifluorophenyl)urea] | 4.5 | – | 79 | – |
| CC(C)(C)c1cc(NC(=O)Nc2ccc(F)cc2F)n(-c2cc(CC(N)=O)c3ccccc3c2)n1 [Example 82, 1-(1-(4-(2-amino-2-oxoethyl)naphthalen-2-yl)-3-t-butyl-1H-pyrazol-5-yl)-3-(2,4-difluorophenyl)urea] | 5.9 | – | 360 | – |
| CC(C)(C)c1cc(NC(=O)Nc2cc(F)cc(F)c2)n(-c2cc(CC(N)=O)c3ccccc3c2)n1 [Example 83, 1-(1-(4-(2-amino-2-oxoethyl)naphthalen-2-yl)-3-t-butyl-1H-pyrazol-5-yl)-3-(3,5-difluorophenyl)urea] | 8.5 | – | 87 | – |
| CC(C)(C)c1cc(NC(=O)Nc2ccc(F)cc2)n(-c2cc(CC(N)=O)c3ccccc3c2)n1 [Example 84, 1-(1-(4-(2-amino-2-oxoethyl)naphthalen-2-yl)-3-t-butyl-1H-pyrazol-5-yl)-3-(4-fluorophenyl)urea] | 11 | – | 390 | – |
| CC(=O)c1cc(-n2nc(C(C)(C)C)cc2NC(=O)Nc2cccc(Cl)c2Cl)cc2ccccc12 [Example 100, 1-(1-(4-acetylnaphthalen-2-yl)-3-t-butyl-1H-pyrazol-5-yl)-3-(2,3-dichlorophenyl)urea] | 6.9 | – | 150 | 5 |
| CC(C)(C)c1cc(NC(=O)Nc2cccc(Cl)c2Cl)n(-c2ccc3c(c2)C(=O)CC3)n1 [Example 102, 1-[5-t-butyl-2-(3-oxo-indan-5-yl)-2H-pyrazol-3-yl]-3-(2,3-dichlorophenyl)urea] | 2.5 | – | 110 | – |
| CC(C)(C)c1cc(NC(=O)Nc2cccc(Cl)c2Cl)n(-c2ccc3c(c2)C(O)CC3)n1 (centres unmarked) [Example 103, 1-[5-t-butyl-2-(3-hydroxy-indan-5-yl)-2H-pyrazol-3-yl]-3-(2,3-dichlorophenyl)urea] | 4.5 | – | 240 | – |
| CC(C)(C)c1cc(NC(=O)Nc2cccc(Cl)c2Cl)n(-c2ccc3c(c2)C(N)CC3)n1 (centres unmarked) [Example 105, 1-[2-(3-amino-indan-5-yl)-5-t-butyl-2H-pyrazol-3-yl]-3-(2,3-dichlorophenyl)urea] | 12 | – | 240 | – |
| CC(=O)N1CCc2cc(-n3nc(C(C)(C)C)cc3NC(=O)Nc3cccc(Cl)c3Cl)ccc21 [Example 107, 1-(1-(1-acetylindolin-5-yl)-3-t-butyl-1H-pyrazol-5-yl)-3-(2,3-dichlorophenyl)urea] | 2.1 | – | 180 | – |
| CC(C)(C)c1cc(NC(=O)Nc2cccc(C#N)c2)n(-c2ccc3c(c2)CCN3)n1 [Example 111, 1-(3-t-butyl-1-(indolin-5-yl)-1H-pyrazol-5-yl)-3-(3-cyanophenyl)urea] | 97 | – | 620 | – |
| CC(C)(C)c1cc(NC(=O)Nc2cccc(Cl)c2Cl)n(-c2ccc3c(c2)N(S(C)(=O)=O)CC3)n1 [Example 113, 1-(3-t-butyl-1-(1-(methylsulfonyl)indolin-6-yl)-1H-pyrazol-5-yl)-3-(2,3-dichlorophenyl)urea] | 3.3 | – | 190 | – |
| CC(C)(C)c1cc(NC(=O)Nc2cccc(C#N)c2)n(-c2ccc3c(c2)NCC3)n1 [Example 114, 1-(3-t-butyl-1-(indolin-6-yl)-1H-pyrazol-5-yl)-3-(3-cyanophenyl)urea] | 115 | – | 640 | – |
| CC(C)(C)c1cc(NC(=O)Nc2ccc(Cl)cc2)n(-c2ccc3c(c2)CNCC3)n1 [Example 124, 1-[3-t-butyl-1-(1,2,3,4-tetrahydroisoquinolin-7-yl)-1H-pyrazol-5-yl]-3-(4-chloro-phenyl)urea] | 173 | – | 1400 | – |
| CC(C)(C)c1cc(NC(=O)Nc2ccc(Cl)cc2)n(-c2ccc3c(c2)CN(C(=O)NS(C)(=O)=O)CC3)n1 [Example 128, N-(7-{3-t-butyl-5-[3-(4-chloro-phenyl)ureido]pyrazol-1-yl}-3,4-dihydro-1H-isoquinoline-2-carbonyl)methane-sulfonamide] | 67 | – | 7500 | – |

| SMILES | IC50 (B-Raf(V599E) kinase) [nM] | IC50 (KDR kinase) [nM] | IC50 (Abl kinase) [nM] | IC50 [1] [nM] |
| --- | --- | --- | --- | --- |
| Cc1ccc(NC(=O)Nc2cc(C(C)(C)C)nn2-c2ccc3c(c2)CCNC3)cc1Nc1ncccn1 [Example 142, 1-(3-t-butyl-1-(1,2,3,4-tetrahydro-isoquinolin-6-yl)-1H-pyrazol-5-yl)-3-(4-methyl-3-(pyrimidin-2-ylamino)phenyl)-urea] | 35 | – | 170 | – |
| CC(C)(C)c1cc(NC(=O)Nc2cccc(F)c2F)n(-c2ccc3c(c2)CCNC3)n1 [Example 144, 1-(3-t-butyl-1-(1,2,3,4-tetrahydroiso-quinolin-6-yl)-1H-pyrazol-5-yl)-3-(2,3-difluorophenyl)-urea] | 9.6 | – | 200 | – |
| CC(C)(C)c1cc(NC(=O)Nc2ccc(F)cc2F)n(-c2ccc3c(c2)CCNC3)n1 [Example 145, 1-(3-t-butyl-1-(1,2,3,4-tetrahydroiso-quinolin-6-yl)-1H-pyrazol-5-yl)-3-(2,4-difluorophenyl)-urea] | 13 | – | 410 | – |
| CC(C)(C)c1cc(NC(=O)Nc2ccc(F)c(F)c2F)n(-c2ccc3c(c2)CCNC3)n1 [Example 147, 1-(3-t-butyl-1-(1,2,3,4-tetrahydroiso-quinolin-6-yl)-1H-pyrazol-5-yl)-3-(2,3,4-trifluorophenyl)-urea] | 10 | – | 140 | – |
| CC(C)(C)c1cc(NC(=O)Nc2cccc(Cl)c2Cl)n(-c2ccc3[nH]c(=O)ccc3c2)n1 [Example 155, 1-(3-t-butyl-1-(2-oxo-1,2-dihydroquinolin-6-yl)-1H-pyrazol-5-yl)-3-(2,3-dichlorophenyl)-urea] | 1.4 | – | 260 | 110 |
| CC(C)(C)c1cc(NC(=O)Nc2cccc(Cl)c2Cl)n(-c2cc(CCN)c3ccccc3c2)n1 [Example 193, 1-(1-(4-(2-aminoethyl)naphthalen-2-yl)-3-t-butyl-1H-pyrazol-5-yl)-3-(2,3-dichlorophenyl)urea] | 2.6 | – | 81 | – |
| CC(C)(C)c1cc(NC(=O)Nc2cc(F)c(F)cc2F)n(-c2cccc(C#N)c2)n1 [Example 207, 1-(3-t-butyl-1-(3-cyanophenyl)-1H-pyrazol-5-yl)-3-(2,4,5-trifluorophenyl)urea] | – | 340 | – | – |
| CC(C)(C)c1cc(NC(=O)Nc2cc(F)c(F)cc2F)n(-c2cccc(C(=N)N)c2)n1 [Example 214, 1-(3-t-butyl-1-(3-carbamimidoylphenyl)-1H-pyrazol-5-yl)-3-(2,4,5-trifluorophenyl)urea] | – | 840 | – | – |
| CC(C)(C)c1cc(NC(=O)Nc2cccc(F)c2F)n(-c2cccc(CO)c2)n1 [Example 220, 1-{3-t-butyl-1-[3-(hydroxymethyl)phenyl]-1H-pyrazol-5-yl}-3-(2,3-difluorophenyl)urea] | 33 | 950 | – | – |
| CC(C)(C)c1cc(NC(=O)Nc2cccc(Cl)c2)n(-c2cccc(CN)c2)n1 [Example 227, 1-{1-[3-(aminomethyl)phenyl]-3-t-butyl-1H-pyrazol-5-yl}-3-(3-chloro-phenyl)urea] | 61 | 9300 | – | – |
| CC(C)(C)c1cc(NC(=O)Nc2cccc(Cl)c2)n(-c2cccc(CCN)c2)n1 [Example 257, 1-{1-[3-(2-aminoethyl)phenyl]-3-t-butyl-1H-pyrazol-5-yl}-3-(3-chlorophenyl)urea] | 62 | 6600 | – | – |
| CC(C)(C)c1cc(NC(=O)Nc2cccc(Cl)c2Cl)n(-c2cccc(-c3cccnc3)c2)n1 [Example 276, 1-[5-t-butyl-2-(3-pyridin-3-yl-phenyl)-2H-pyrazol-3-yl]-3-(2,3-dichlorophenyl)urea] | 4.9 | – | 2300 | – |
| CC(C)(C)c1cc(NC(=O)Nc2ccccc2)n(-c2ccc3ncccc3c2)n1 [Example 282, 1-[3-t-butyl-1-(quinolin-6-yl)-1H-pyrazol-5-yl]-3-phenylurea] | 41 | 2400 | – | – |
| CC(C)(C)c1cc(NC(=O)Nc2ccc(F)c(F)c2F)n(-c2ccc3ncccc3c2)n1 [Example 285, 1-(3-t-butyl-(quinolin-6-yl)-1H-pyrazol-5-yl)-3-(2,3,4-trifluorophenyl)urea] | 5.1 | 380 | – | – |
| CC(C)(C)c1cc(NC(=O)Nc2cccc(Cl)c2Cl)n(-c2cccc(CC(=O)O)c2)n1 [Example 373, 2-(3-{3-t-butyl-5-[3-(2,3-dichlorophenyl)-ureido]-1H-pyrazol-1-yl}phenyl)acetic acid] | 3.2 | – | 3500 | – |
